Results on 18 compounds are retold here after US20030100550A1, “Carboxamide diazepin derivatives, preparation method, use as medicines, pharmaceutical compositions and use thereof” (priority 2002, published 2003).

Each structure is given as a SMILES string. Like-named read-outs stand apart in the source and are kept apart here.

The target in the assay is T1, Cathepsin K (Homo sapiens, UniProt P43235).
T1 sequence (P43235 115-329): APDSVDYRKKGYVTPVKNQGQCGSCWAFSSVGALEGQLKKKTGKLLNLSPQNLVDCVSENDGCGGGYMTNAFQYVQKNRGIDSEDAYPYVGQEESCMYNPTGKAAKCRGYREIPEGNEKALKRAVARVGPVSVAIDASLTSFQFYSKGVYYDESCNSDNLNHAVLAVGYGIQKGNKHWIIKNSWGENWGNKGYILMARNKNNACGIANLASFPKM
The assay is described as follows: Study of Cathepsin K inhibition (fluorescence, Z-Val-arg-AMC). It counts as biochemical. As for the experimental part: Study of Cathepsin K Inhibition:
The products to be tested (10 mM) are diluted to […] in DMSO and distributed into Nunc polystyrene 96 well plates at a rate of 2 μl per well. Column 12 of the plate is reserved for the controls and therefore receives […] of DMSO (without products) per well. The plates are stored at −80° C. and thawed on the day of the experiment.
The products are diluted to 50 μM by adding 38 μl of reaction buffer: sodium acetate 100 mM, EDTA 5 mM, DTT […] pH 5.5. The addition as well as all the operations by pipette are carried out with a CybiWell 96 tip pipette. After mixing the solutions, each product is transferred into 2 wells (duplicates) of a Greiner black 384 well plate at a rate of 10 μl per well. Two 96-well plates can therefore be tested in a 384-well plate.
A solution of substrate at 50 μM, Z-Val-arg-AMC (Calbiochem), is prepared in the reaction buffer. The substrate, is then distributed into all the wells of the 384-well plate (20 μl per well).
A solution of Cathepsin K at 12.5 ng/ml is prepared in the reaction buffer and distributed into all the wells of the 384-well plate (20 μl per well) except for the 16 wells serving as 100% inhibition controls (column 23 and 24, lines I to P) which receive 20 μl of enzyme-free buffer.
The plates are then incubated 2H at ambient temperature, then read on Fluoroskan (Labsystems): excitation 390 nm; emission 460 nm
The final concentrations of each of the reagents are: products 10 μM, substrate 20 μM, enzyme 5 ng/ml.
The % inhibition for each of the products is calculated by using points at 0 and 100% inhibition of each plate as references. The products presenting a significant inhibition are then retested on a range of concentrations from 50 to 0.5 μM to determine an IC50.

Where [1] appears, read: substrate Z-Val-arg-AMC 20 μM, enzyme 5 ng/ml, 2H at ambient temperature, read-out: Cathepsin K IC50.

As for `C=CCOC(=O)CC[C@H](NC(=O)[C@@H]1CCCN2C(=O)CC[C@H](NC(=O)C(C)C)C(=O)N12)C(=O)C=[N+]=[N-]` [Example 38, (2-propenyl)(4S)6-diazo-4-[[[(1S,9S)-9-[(2-methyl-1-oxo-propyl)amino]-octahydro-6,10-dioxo-6H-pyridazino[1,2-a][1,2]diazepine-1-yl]carbonyl]amino]-5-oxo-hexanoate], the IC50 under setting [1] was 5 µM.

As to `C=CCOC(=O)CC[C@H](NC(=O)[C@@H]1CCCN2C(=O)CC[C@H](NC(=O)c3cccc(OC)c3)C(=O)N12)C(=O)C=[N+]=[N-]` [Example 39, (2-propenyl)(4S)6-diazo-4-[[[(1S,9S)-9-[(3-methoxybenzoyl)amino]-octahydro-6,10-dioxo-6H-pyridazino[1,2-a][1,2]diazepine-1-yl]carbonyl]amino]-5-oxo-hexanoate], under setting [1], the IC50 was determined as 3 µM.

In the case of `C=CCOC(=O)CC[C@H](NC(=O)[C@@H]1CCCN2C(=O)CC[C@H](NC(=O)c3ccco3)C(=O)N12)C(=O)C=[N+]=[N-]` [Example 40, (2-propenyl)(4S)6-diazo-4-[[[(1S,9S)-9-[[(2-furanyl)carbonyl]amino]-octahydro-6,10-dioxo-6H-pyridazino[1,2-a][1,2]diazepine-1-yl]carbonyl]amino]-5-oxo-hexanoate], under setting [1], the IC50 is 1.8 µM.

Consider `C=CCOC(=O)CC[C@H](NC(=O)[C@@H]1CCCN2C(=O)CC[C@H](NC(=O)NC3CCCCC3)C(=O)N12)C(=O)C=[N+]=[N-]` [Example 42, (2-propenyl)(4S)6-diazo-4-[[[(1S,9S)-9-[[(cyclohexylamino)carbonyl]amino]-octahydro-6,10-dioxo-6H-pyridazino[1,2-a][1,2]diazepine-1-yl]carbonyl]amino]-5-oxo-hexanoate], for which, under setting [1], the IC50 was determined as 4 µM.

As for `C=CCOC(=O)CC[C@H](NC(=O)[C@@H]1CCCN2C(=O)CC[C@H](NS(C)(=O)=O)C(=O)N12)C(=O)C=[N+]=[N-]` [Example 45, (2-propenyl)(4S)6-diazo-4-[[[(1S,9S)-9-[(methylsulphonyl)amino]-octahydro-6,10-dioxo-6H-pyridazino[1,2-a][l,2]diazepine-1-yl]carbonyl]amino]-5-oxo-hexanoate], the IC50 under setting [1] is 0.9 µM.

`C=CCOC(=O)CC[C@H](NC(=O)[C@@H]1CCCN2C(=O)CC[C@H](NS(=O)(=O)c3ccc(C(F)(F)F)cc3)C(=O)N12)C(=O)C=[N+]=[N-]` [Example 46, (2-propenyl)(4S)6-diazo-4-[[[(1S,9S)-9-[[[4-(trifluoromethyl)phenyl]sulphonyl]amino]-octahydro-6,10-dioxo-6H-pyridazino[1,2-a][1,2]diazepine-1-yl]carbonyl]amino]-5-oxo-hexanoate]: the IC50 under setting [1] worked out at 6 µM.

For `C=CCOC(=O)CC[C@H](NC(=O)[C@@H]1CCCN2C(=O)CC[C@H](NS(=O)(=O)c3ccc4ccccc4c3)C(=O)N12)C(=O)C=[N+]=[N-]` [Example 47, (2-propenyl)(4S)6-diazo-4-[[[(1S,9S)-9-[[(2-naphthalenyl)sulphonyl]amino]-octahydro-6,10-dioxo-6H-pyridazino[1,2-a][1,2]diazepine-1-yl]carbonyl]amino]-5-oxo-hexanoate], the IC50 under setting [1] turned out to be 5 µM.

Consider `C=CCOC(=O)CC[C@H](NC(=O)[C@@H]1CCCN2C(=O)CC[C@H](NS(=O)(=O)c3ccc(C(F)(F)F)cc3)C(=O)N12)C(=O)CN1CCN(CC(=O)N2CCCC2)CC1` [Example 107], for which the IC50 under setting [1] stood at 20 µM.

With `C=CCOC(=O)CC[C@H](NC(=O)[C@@H]1CCCN2C(=O)CC[C@H](NS(=O)(=O)c3ccc4ccccc4c3)C(=O)N12)C(=O)CN1CCN(CC(=O)N2CCCC2)CC1` [Example 117], half-maximal inhibition (IC50) was put at 7 µM.

In the case of `C=CCOC(=O)CC[C@H](NC(=O)[C@@H]1CCCN2C(=O)CCC[C@H](NC(=O)Nc3ccc(Oc4ccccc4)cc3)C(=O)N12)C(=O)COC(C)=O` [Example 133], the “Cathepsin K, percentage in parentheses beside IC50 value (% inhibition)” value (printed beside 20 μM, meaning not explained) turned out to be 25%. Also, the IC50 under setting [1] came out at 20 µM.

With `C=CCOC(=O)CCC(NC(=O)C1CCCN2C(=O)CCC(NC(=O)NCCc3cccs3)C(=O)N12)C(=O)CSc1nnnn1-c1ccccc1` [Example 138, (2-propenyl)(4S)6-[(1-phenyl-1H-tetrazol-5-yl)thio]-4-[[[(1S,9S)-^9-[[[[^2-(thien-2-yl)-ethyl]amino]carbonyl]amino]-octahydro-6,10-dioxo-6H-pyridazino[1,2-a][1,2]diazepine-1-yl]carbonyl]amino]-5-oxo-hexanoate], the IC50 under setting [1] stood at 29 µM.

Turning to `[N-]=[N+]=CC(=O)[C@H](Cc1ccccc1)NC(=O)[C@@H]1CCCN2C(=O)CC[C@H](NC(=O)NCCc3cccs3)C(=O)N12` [Example 162], under setting [1], the IC50 came out at 20 µM.

Regarding `[N-]=[N+]=CC(=O)[C@H](Cc1ccccc1)NC(=O)[C@@H]1CCCN2C(=O)CC[C@H](NS(=O)(=O)c3ccc4ccccc4c3)C(=O)N12` [Example 165, 9-[(9S)-[(2-naphthalenyl)sulphonyl]amino]-N-( (2S)-4-diazo-1-phenyl-3-oxo-2-butyl)-octahydro-6,10-dioxo-6H-(1S)-pyridazino[1,2-a][1,2]diazepine-1-carboxamide], the IC50 under setting [1] came out at 20 µM.

As to `C[C@H](NC(=O)[C@@H]1CCCN2C(=O)CC[C@H](NC(=O)Nc3ccc(Oc4ccccc4)cc3)C(=O)N12)C(=O)C=[N+]=[N-]` [Example 171, 9-[(9S)-[[(4-phenoxyphenyl)amino]carbonyl]amino]-N-((2S)-4-diazo-3-oxo-2-butyl)-octahydro-6,10-dioxo-6H-(1S)-pyridazino[1,2-a][1,2]diazepine-1-carboxamide], under setting [1], the IC50 was determined as 8 µM.

On to `O=C(Nc1ccc(Oc2ccccc2)cc1)N[C@H]1CCC(=O)N2CCC[C@@H](C(=O)N[C@@H](Cc3ccccc3)C(=O)CN3CCC(Cc4ccccc4)CC3)N2C1=O` [Example 218, 9-[(9S)-[[(4-phenoxyphenyl)amino]carbonyl]amino]-N-[(2S)-4-[(4-phenylmethyl)-1-piperidinyl]-1-phenyl-3-oxo-2-butyl]-octahydro-6,10-dioxo-6H-(1S)-pyridazino[1,2-a][1,2]diazepine-1-carboxamide], for which, under setting [1], the IC50 came out at 20 µM.

On to `CC(C)C[C@H](NC(=O)[C@@H]1CCCN2C(=O)CC[C@H](NC(=O)C(C)C)C(=O)N12)C(=O)C=[N+]=[N-]` [Example 339, 9-[(9S)-(2-methyl-1-oxo-propyl)amino]-N-((3S)-1-diazo-5-methyl-2-oxo-3-hexyl)-octahydro-6,10-dioxo-6H-(1S)-pyridazino[1,2-a][1,2]diazepine-1-carboxamide], for which the IC50 under setting [1] was found to be 10 µM.

Turning to `COc1cccc(C(=O)N[C@H]2CCC(=O)N3CCC[C@@H](C(=O)N[C@@H](CC(C)C)C(=O)C=[N+]=[N-])N3C2=O)c1` [Example 340, 9-[(9S)-(3-methoxybenzoyl)amino]-N-((3S)-1-diazo-5-methyl-2-oxo-3-hexyl)-octahydro-6,10-dioxo-6H-(1S)-pyridazino[1,2-a][1,2]diazepine-1-carboxamide], the IC50 under setting [1] was found to be 7 µM.

`CC(C)C[C@H](NC(=O)[C@@H]1CCCN2C(=O)CC[C@H](NC(=O)c3ccco3)C(=O)N12)C(=O)C=[N+]=[N-]` [Example 341, 9-[(9S)-[(2-furanyl)carbonyl]amino]-N-((3S)-1-diazo-5-methyl-2-oxo-3-hexyl)-octahydro-6,10-dioxo-6H-(1S)-pyridazino[1,2-a][1,2]diazepine-1-carboxamide]: the IC50 under setting [1] was 8 µM.

For orientation: IC50 means the midpoint of a concentration-inhibition curve.
